Results published in patent US7902198B2, “Crystalline aripiprazole solvates” (Synthon BV, priority 2004, dated 2011).

Key:
[1] = Solid-state stability upon storage at room temperature; format: physicochemical; details: hemi-ethanolate for at least one month, methanolate prolonged storage
Excerpt: In practice, the molar ratio between aripiprazole and ethanol moieties in the isolated product is from 1:0.4 to 1:0.6, preferably 1:0.45 to 1:0.6.

[2] = Solid-state stability towards thermal energy, milling and forced sieving; details: for change of crystalline structure during milling: milling (Example 7: ball mill 1 minute, IR and XRPD)
[3] = as taught in WO 03/26659, cited from earlier work

| SMILES | stability upon storage [1] | change of crystalline structure during milling [2] | further results |
| --- | --- | --- | --- |
| O=C1CCc2ccc(OCCCCN3CCN(c4cccc(Cl)c4Cl)CC3)cc2N1 [aripiprazole methanolate, 7-[4-[4-(2,3-dichlorophenyl)-1-piperazinyl]butoxy]-3,4-dihydrocarbostyril] | more stable upon prolonged storage at room temperature than the hemi-ethanolate | does not change its crystalline structure |  |
| O=C1CCc2ccc(OCCCCN3CCN(c4cccc(Cl)c4Cl)CC3)cc2N1 [Aripiprazole hemi-ethanolate, 7-[4-[4-(2,3-dichlorophenyl)-1-piperazinyl]butoxy]-3,4-dihydrocarbostyril] | reasonably stable |  | stability towards thermal energy, including milling [2]: rather unstable |
| O=C1CCc2ccc(OCCCCN3CCN(c4cccc(Cl)c4Cl)CC3)cc2N1 [Example 7] |  | crystal structure has not been changed |  |
| O=C1CCc2ccc(OCCCCN3CCN(c4cccc(Cl)c4Cl)CC3)cc2N1 [Type I aripiprazole, 7-[4-[4-(2,3-dichlorophenyl)-1-piperazinyl]butoxy]-3,4-dihydrocarbostyril] |  |  | hygroscopicity [3]: significantly hygroscopic |
| O=C1CCc2ccc(OCCCCN3CCN(c4cccc(Cl)c4Cl)CC3)cc2N1 [Anhydrous Form B, 7-[4-[4-(2,3-dichlorophenyl)-1-piperazinyl]butoxy]-3,4-dihydrocarbostyril] |  |  | water uptake ([3]; in 24 hours): less than 0.4% |
| O=C1CCc2ccc(OCCCCN3CCN(c4cccc(Cl)c4Cl)CC3)cc2N1 [Example 5] |  |  | effect of forced sieving on the crystal structure ([2]; pressed through a 100 μm sieve, IR, XRPD): no detectable effect on the crystal structure |
